# Laboratory results from patent US7265103B2, “Substituted amino isoxazoline derivatives and their use as anti-depressants” (Janssen Pharmaceutica NV., priority 2002, dated 2007).
# Molecular target: T1, hα2A receptor (Homo sapiens, UniProt P08913)
# T1 construct: expressed in transfected cells; host or cells: CHO cells
# T1 sequence (P08913 1-465): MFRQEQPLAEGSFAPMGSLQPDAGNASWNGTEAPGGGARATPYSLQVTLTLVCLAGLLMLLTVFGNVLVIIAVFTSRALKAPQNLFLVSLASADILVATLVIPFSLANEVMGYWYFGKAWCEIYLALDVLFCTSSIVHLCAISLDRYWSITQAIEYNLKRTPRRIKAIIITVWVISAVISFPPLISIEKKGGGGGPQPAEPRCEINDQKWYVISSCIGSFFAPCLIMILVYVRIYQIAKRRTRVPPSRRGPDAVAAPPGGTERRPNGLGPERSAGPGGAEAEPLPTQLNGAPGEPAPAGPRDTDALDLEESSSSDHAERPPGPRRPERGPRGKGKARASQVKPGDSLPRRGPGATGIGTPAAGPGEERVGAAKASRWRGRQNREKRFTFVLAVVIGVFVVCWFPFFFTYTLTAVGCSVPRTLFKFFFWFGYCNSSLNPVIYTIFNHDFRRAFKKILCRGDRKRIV
# Test: Radioligand binding experiment for α2A-adrenergic receptor ([3H]-raulwolscine)
# Conditions: CHO cell membranes with human α2A receptor, [3H]raulwolscine 1 nM; read-out: pIC50 α2A (converted)
# Summary of the method: (§1)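 Membranes from CHO cells stably expressing human α2A or α2C receptors (sodium butyrate-induced) incubated with 1 nM [3H]raulwolscine in 25 mM glycylglycine pH 8.0 for 60 min at 25° C, then filtered. Non-specific binding defined with 1 μM oxymetazoline (α2A) or 1 μM spiroxatrine (α2C); pIC50 from sigmoidal competition curves.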
row,Structure (SMILES),IC50 [µM]
1,CC(=Cc1ccccc1)CN1CCN(CC2ON=C3c4ccc(Nc5ccc(F)cc5)cc4OCC32)CC1 (stereo not drawn) [Compound 42],0.0316
2,CNCCN(C)c1ccc2c(c1)OCC1C2=NOC1CN1CCN(CC(C)=Cc2ccc(F)cc2)CC1 (stereo not drawn) [Compound 21],0.00794
3,CC(=Cc1ccccc1)CN1CCN(CC2ON=C3c4ccc(Nc5ccccc5)cc4OCC32)CC1 (stereo not drawn) [Compound 40],0.0158
4,C/C(=C\c1ccccc1)CN1CCN(CC2ON=C3c4cc(N5CCOCC5)ccc4OCC32)CC1 (stereo not drawn) [Compound 4],0.0126

# The remaining lines, values ahead:
row,IC50 [µM],Structure (SMILES)
1,0.1,CCOC(=O)C1CCN(c2ccc3c(c2)OCC2C3=NOC2CN2CCN(CC(C)=Cc3ccc(F)cc3)CC2)CC1 (stereo not drawn) [Compound 72]
2,0.00794,CCOC(=O)CNC(=O)Nc1ccc2c(c1)OCC1C2=NOC1CN1CCN(CC(C)=Cc2ccccc2)CC1 (stereo not drawn) [Compound 63]
3,0.126,CC(=Cc1ccc(F)cc1)CN1CCN(CC2ON=C3c4ccc(N5CCN(Cc6ccccc6)CC5)cc4OCC32)CC1 (stereo not drawn) [Compound 80]
4,0.00158,COc1cc2c(cc1N1CCOCC1)OCC1C2=NOC1CN1CCN(CC(C)=Cc2ccccc2)CC1 (stereo not drawn) [Compound 82]
5,0.0631,CC(=Cc1ccc(F)cc1)CN1CCN(CC2ON=C3c4ccc(N5CCCCC5)cc4OCC32)CC1 (stereo not drawn) [Compound 71]

# Molecular target: T2, hα2C receptor (Homo sapiens, UniProt P18825)
# T2 construct: expressed in transfected cells; host or cells: CHO cells
# T2 sequence (P18825 1-462): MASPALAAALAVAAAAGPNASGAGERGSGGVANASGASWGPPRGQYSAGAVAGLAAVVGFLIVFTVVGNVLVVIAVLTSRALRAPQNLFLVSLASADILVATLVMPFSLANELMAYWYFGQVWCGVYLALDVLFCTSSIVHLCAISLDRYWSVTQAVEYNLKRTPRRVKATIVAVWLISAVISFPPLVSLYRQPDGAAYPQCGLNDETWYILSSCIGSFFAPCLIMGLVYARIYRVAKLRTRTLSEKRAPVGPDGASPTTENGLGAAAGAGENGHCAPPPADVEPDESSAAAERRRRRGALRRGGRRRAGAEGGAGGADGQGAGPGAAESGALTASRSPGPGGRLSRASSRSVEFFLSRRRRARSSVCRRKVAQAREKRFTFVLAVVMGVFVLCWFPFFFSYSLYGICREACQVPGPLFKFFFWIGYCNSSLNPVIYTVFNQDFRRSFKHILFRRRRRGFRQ
# Test: Radioligand binding experiment for α2C-adrenergic receptor ([3H]-raulwolscine)
# Conditions: CHO cell membranes with human α2C receptor, [3H]raulwolscine 1 nM; read-out: pIC50 α2C (converted)
# Summary of the method: as §1
row,Structure (SMILES),IC50 [µM]
1,CC(=Cc1ccccc1)CN1CCN(CC2ON=C3c4ccc(Nc5ccc(F)cc5)cc4OCC32)CC1 (stereo not drawn) [Compound 42],0.0158
2,CNCCN(C)c1ccc2c(c1)OCC1C2=NOC1CN1CCN(CC(C)=Cc2ccc(F)cc2)CC1 (stereo not drawn) [Compound 21],0.002
3,CC(=Cc1ccccc1)CN1CCN(CC2ON=C3c4ccc(Nc5ccccc5)cc4OCC32)CC1 (stereo not drawn) [Compound 40],0.01
4,C/C(=C\c1ccccc1)CN1CCN(CC2ON=C3c4cc(N5CCOCC5)ccc4OCC32)CC1 (stereo not drawn) [Compound 4],0.00251

# Further lines, results first:
row,IC50 [µM],Structure (SMILES)
1,0.02,CCOC(=O)C1CCN(c2ccc3c(c2)OCC2C3=NOC2CN2CCN(CC(C)=Cc3ccc(F)cc3)CC2)CC1 (stereo not drawn) [Compound 72]
2,0.00158,CCOC(=O)CNC(=O)Nc1ccc2c(c1)OCC1C2=NOC1CN1CCN(CC(C)=Cc2ccccc2)CC1 (stereo not drawn) [Compound 63]
3,0.00398,CC(=Cc1ccc(F)cc1)CN1CCN(CC2ON=C3c4ccc(N5CCN(Cc6ccccc6)CC5)cc4OCC32)CC1 (stereo not drawn) [Compound 80]
4,0.00126,COc1cc2c(cc1N1CCOCC1)OCC1C2=NOC1CN1CCN(CC(C)=Cc2ccccc2)CC1 (stereo not drawn) [Compound 82]
5,0.00631,CC(=Cc1ccc(F)cc1)CN1CCN(CC2ON=C3c4ccc(N5CCCCC5)cc4OCC32)CC1 (stereo not drawn) [Compound 71]

# Molecular target: T3, h5-HT transporter (Homo sapiens, UniProt P31645)
# T3 construct: Human platelet membranes (Oceanix Biosciences Corporation, Hanover, Md., USA) were thawed; tissue Oceanix Biosciences Corporation; host or cells: human platelet membranes
# Test: Radioligand binding experiment for 5-HT transporter ([3H]paroxetine)
# Conditions: human platelet membranes, [3H]paroxetine 0.5 nM
# Summary of the method: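 Competition binding on human platelet membranes (50-100 μg protein) in 50 mM Tris-HCl, 120 mM NaCl, 5 mM KCl with 0.5 nM [3H]paroxetine, 60 min at 25 °C, filtration and scintillation counting. Non-specific binding defined with 1 μM imipramine; pIC50 from nonlinear sigmoidal fits of percent total binding.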
# T3 sequence (P31645 whole entry): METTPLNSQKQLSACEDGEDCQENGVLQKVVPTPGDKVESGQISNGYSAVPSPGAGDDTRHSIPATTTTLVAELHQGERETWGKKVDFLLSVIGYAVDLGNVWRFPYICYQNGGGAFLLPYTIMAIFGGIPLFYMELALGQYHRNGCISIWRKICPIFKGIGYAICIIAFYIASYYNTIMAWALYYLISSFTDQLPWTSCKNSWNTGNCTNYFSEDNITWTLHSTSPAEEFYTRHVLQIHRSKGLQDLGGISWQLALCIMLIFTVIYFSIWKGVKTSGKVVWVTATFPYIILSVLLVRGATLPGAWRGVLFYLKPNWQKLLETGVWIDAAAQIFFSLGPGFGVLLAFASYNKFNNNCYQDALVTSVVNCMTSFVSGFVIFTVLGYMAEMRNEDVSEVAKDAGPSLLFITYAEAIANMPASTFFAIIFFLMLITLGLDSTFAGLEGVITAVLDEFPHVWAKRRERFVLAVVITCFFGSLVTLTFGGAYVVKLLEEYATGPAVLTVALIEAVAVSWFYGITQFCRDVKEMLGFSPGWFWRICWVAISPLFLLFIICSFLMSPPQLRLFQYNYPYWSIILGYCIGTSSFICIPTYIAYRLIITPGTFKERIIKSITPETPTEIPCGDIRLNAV
row,Structure (SMILES),IC50 [µM]
1,CC(=Cc1ccccc1)CN1CCN(CC2ON=C3c4ccc(Nc5ccc(F)cc5)cc4OCC32)CC1 (stereo not drawn) [Compound 42],0.126
2,CNCCN(C)c1ccc2c(c1)OCC1C2=NOC1CN1CCN(CC(C)=Cc2ccc(F)cc2)CC1 (stereo not drawn) [Compound 21],0.00398
3,CC(=Cc1ccccc1)CN1CCN(CC2ON=C3c4ccc(Nc5ccccc5)cc4OCC32)CC1 (stereo not drawn) [Compound 40],0.0501
4,C/C(=C\c1ccccc1)CN1CCN(CC2ON=C3c4cc(N5CCOCC5)ccc4OCC32)CC1 (stereo not drawn) [Compound 4],> 1

# Further lines, results first:
row,IC50 [µM],Structure (SMILES)
1,0.631,CCOC(=O)C1CCN(c2ccc3c(c2)OCC2C3=NOC2CN2CCN(CC(C)=Cc3ccc(F)cc3)CC2)CC1 (stereo not drawn) [Compound 72]
2,0.0316,CCOC(=O)CNC(=O)Nc1ccc2c(c1)OCC1C2=NOC1CN1CCN(CC(C)=Cc2ccccc2)CC1 (stereo not drawn) [Compound 63]
3,0.126,CC(=Cc1ccc(F)cc1)CN1CCN(CC2ON=C3c4ccc(N5CCN(Cc6ccccc6)CC5)cc4OCC32)CC1 (stereo not drawn) [Compound 80]
4,0.0398,COc1cc2c(cc1N1CCOCC1)OCC1C2=NOC1CN1CCN(CC(C)=Cc2ccccc2)CC1 (stereo not drawn) [Compound 82]
5,0.1,CC(=Cc1ccc(F)cc1)CN1CCN(CC2ON=C3c4ccc(N5CCCCC5)cc4OCC32)CC1 (stereo not drawn) [Compound 71]

# System: not given
# Test: not given
# Conditions: not given
row,Structure (SMILES),melting point [°C]
1,CC(=Cc1ccccc1)CN1CCN(CC2ON=C3c4ccc(Nc5ccc(F)cc5)cc4OCC32)CC1 (stereo not drawn) [Compound 42],130.8 to 134.1
2,CNCCN(C)c1ccc2c(c1)OCC1C2=NOC1CN1CCN(CC(C)=Cc2ccc(F)cc2)CC1 (stereo not drawn) [Compound 21],98.4 to 105.3
3,CC(=Cc1ccccc1)CN1CCN(CC2ON=C3c4ccc(Nc5ccccc5)cc4OCC32)CC1 (stereo not drawn) [Compound 40],127.1 to 131.4
4,C/C(=C\c1ccccc1)CN1CCN(CC2ON=C3c4cc(N5CCOCC5)ccc4OCC32)CC1 (stereo not drawn) [Compound 4],121.8 to 125.9

# Second part, the compound after the results:
row,melting point [°C],Structure (SMILES)
1,156.4 to 161,CCOC(=O)C1CCN(c2ccc3c(c2)OCC2C3=NOC2CN2CCN(CC(C)=Cc3ccc(F)cc3)CC2)CC1 (stereo not drawn) [Compound 72]
2,175.3 to 177,CCOC(=O)CNC(=O)Nc1ccc2c(c1)OCC1C2=NOC1CN1CCN(CC(C)=Cc2ccccc2)CC1 (stereo not drawn) [Compound 63]
3,166.4 to 178.2,CC(=Cc1ccc(F)cc1)CN1CCN(CC2ON=C3c4ccc(N5CCN(Cc6ccccc6)CC5)cc4OCC32)CC1 (stereo not drawn) [Compound 80]
4,143.5 to 145.9,COc1cc2c(cc1N1CCOCC1)OCC1C2=NOC1CN1CCN(CC(C)=Cc2ccccc2)CC1 (stereo not drawn) [Compound 82]
5,168.2 to 169.4,CC(=Cc1ccc(F)cc1)CN1CCN(CC2ON=C3c4ccc(N5CCCCC5)cc4OCC32)CC1 (stereo not drawn) [Compound 71]
